Like-named read-outs stand apart in the source and are kept apart here.
Tests used:
Hemolytic assay = format: cell-based
Method: (§3) Natural and synthetic QS-21 (SQS-21 or SAPONEX®) and a variety of analogs were tested for hemolytic activity.

mice [1] = experiment: Pilot pharmacology/toxicology study: blood chemistry, hematology, histopathology; format: in vivo; conditions: 50 mcg TiterQuil-1055, 20 mcg QS-21, Adacel 2.5 mcg pertussis toxin, alone or combined; for changes in blood chemistry or hematology results: SC days 1 and 15; for liver histopathology, hepatocellular cytoplasmic vacuolization: SC days 1 and 15, sacrificed day 22
Method: (§1) A pharm/tox study was conducted in 7 groups of 5 mice: 1) PBS alone, 2) 50 mcg TiterQuil-1055, 3) 20 mcg QS-21, 4) Adacel 2.5 mcg pertussis toxin (1/5 the human dose), 5) Adacel+QS-21 (20 mcg QS-21), 6) Adacel+TiterQuil-1055 (50 mcg), 7) Adacel+TiterQuil-1055 (50 mcg). Mice were vaccinated SC on days 1 and 15, weighed daily, and bled and sacrificed on day 22, except for group 7 which was sacrificed on day 29. […] Histopathology of 33 different tissues was performed on all mice. Detected abnormalities were restricted to the liver. […] This abnormality was short lived and was no detected in group 7, which was sacrificed one week after groups 1-6.

mice [2] = experiment: Engerix-B immunogenicity, anti-HBsAg antibody; format: in vivo
Method: Experiments were conducted with Engerix-B (HBV adult vaccine) in groups of 10 mice. Initially 3 mcg, 1 mcg, 0.3 mcg, 0.1 mcg, and 0.03 mcg Engerix-B doses per mouse were tested.

[3] = Companion toxicity study, body mass; format: in vivo, mice; conditions: three days after immunization
Method: as §3

[4] = Engerix-B study, body weight; format: in vivo, mice
[5] = format: in vivo, mice; conditions: for body weight loss: 50 mcg TiterQuil-1055, 20 mcg QS-21
Method: (§2) Adacel doses containing 1, 0.3, and 0.1 mcg of pertussis toxin per mouse were administered subcutaneously (SC, with no immunological adjuvant), using 2 vaccinations 4 weeks apart, resulting in a mean of 1,618 mcg, 898 mcg, and 107 mcg respectively of anti-PT antibody per ml of serum drawn 2 weeks after the second vaccination. The 0.1 mcg dose was indistinguishable from unvaccinated controls (96 mcg/ml). A 0.5 mcg dose of Adacel was selected for a pharmacology/toxicology (pharm/tox) study. The serological results for this study are summarized in FIG. 3 of the present application.
as §1

Stability at 37° C. = format: physicochemical; conditions: for degraded: after two weeks at 37° C.
Method: as §3

mice [6] = experiment: Adacel pharm/tox study, serology with TiterQuil-1055 or QS-21; format: in vivo; conditions: for augmentation of antibody levels compared to immunization with Adacel alone: adjuvant given with Adacel
Method: as §2, §1

humans = conditions: cited from earlier work
[7] = groups of 5 mice, 2 weeks after second SC immunization

## CC1O[C@@H](OC2C(O)[C@@H](NC(=O)CCCCCCCCCCC(=O)O)C(CO)O[C@H]2OC(=O)[C@]23CCC(C)(C)CC2C2=CCC4C5(C)CC[C@H](O)C(C)(C=O)C5CCC4(C)C2(C)CC3O)C(O)C(O)[C@H]1O[C@@H]1OC[C@@H](O)C(O)C1O (stereo partly shown) [Compound I-4]
Hemolytic assay
  hemolytic activity: much lower or undetectable hemolytic activity
Mice [1]
  changes in blood chemistry or hematology results: No changes
  liver histopathology, hepatocellular cytoplasmic vacuolization: No changes at all
Mice [2]; 10 mcg TiterQuil-1055 mixed with 0.3 mcg Engerix-B
  serologic effect: no serologic effect
Mice [2]; 30 mcg TiterQuil-1055 mixed with 0.3 mcg Engerix-B
  increase in antibody levels compared to Engerix-B alone: > 6 fold
Mice [2]; 100 mcg TiterQuil-1055 mixed with 0.3 mcg Engerix-B
  increase in antibody levels compared to Engerix-B alone: 5 fold
Mice [2]; TiterQuil-1055 doses above 50 mcg per mouse
  antibody response at higher adjuvant doses: Lack of antibody increase or decreasing responses
[3]
  body mass gained on average: 5%
[4]; 30 mcg TiterQuil-1055 dose
  weight loss: No weight loss
[4]; 100 mcg TiterQuil-1055 dose
  weight loss: 4%
[4]; 300 mcg TiterQuil-1055 dose
  weight loss: 5%
[5]; 50 mcg TiterQuil-1055, 20 mcg QS-21, Adacel 2.5 mcg pertussis toxin, alone or combined, SC days 1 and 15, weighed daily
  weight loss: no other mice
[5]
  body weight loss: No weight loss
Stability at 37° C.
  degraded: without detectable degradation
Stability at 37° C.; compared with QS-21
  stability: increased stability
Mice [6]; Adacel with TiterQuil-1055, a further 2 weeks later
  antibody levels 2 weeks later: further increased
Mice [6]; groups of 5 mice, 2 weeks after second SC immunization, Adacel alone or Adacel with TiterQuil-1055
  antibody levels: 52,344
Mice [6]; [7]
  augmentation of antibody levels compared to immunization with Adacel alone: 70 fold

## QS-21 [reference compound]
Hemolytic assay
  hemolytic activity: highly hemolytically active
Mice [1]
  changes in blood chemistry or hematology results: No changes
  liver histopathology, hepatocellular cytoplasmic vacuolization: Mild vacuolar changes
[3]; 20 mcg QS-21
  body mass lost on average: 8-10%
[5]
  body weight loss: 8-9%
humans; cancer patients, above it local and systemic side effects
  tolerated dose in cancer patients: 100 to 150 µg
humans; healthy patients
  maximum dose for healthy patients: ~50 µg
humans; well (non-cancer) adult and child recipients
  highest practical tolerable dose: 25 to 50 µg
Stability at 37° C.
  degraded: 20%
Mice [6]; [7]
  augmentation of antibody levels compared to immunization with Adacel alone: 10 fold

Source: US12569554B2, “Triterpene saponin analogues” (priority 2017, dated 2026)
